Measurements from ChEMBL document CHEMBL1132857, “Synthesis and binding studies of some epibatidine analogues” (Bioorg Med Chem Lett, 2000).

Columns and labels:
[1] = biological target: T1, 5-hydroxytryptamine receptor 1A (Rattus norvegicus) (UniProt P19327); test: Inhibition of [3H]8-hydroxy-2-dipropylamino-1,2,3,4-tetrahydronaphthalene binding to 5-hydroxytryptamine 1A receptor in hippocampus region of rat brain; Less active; assay type: tissue-based
T1 sequence (whole entry): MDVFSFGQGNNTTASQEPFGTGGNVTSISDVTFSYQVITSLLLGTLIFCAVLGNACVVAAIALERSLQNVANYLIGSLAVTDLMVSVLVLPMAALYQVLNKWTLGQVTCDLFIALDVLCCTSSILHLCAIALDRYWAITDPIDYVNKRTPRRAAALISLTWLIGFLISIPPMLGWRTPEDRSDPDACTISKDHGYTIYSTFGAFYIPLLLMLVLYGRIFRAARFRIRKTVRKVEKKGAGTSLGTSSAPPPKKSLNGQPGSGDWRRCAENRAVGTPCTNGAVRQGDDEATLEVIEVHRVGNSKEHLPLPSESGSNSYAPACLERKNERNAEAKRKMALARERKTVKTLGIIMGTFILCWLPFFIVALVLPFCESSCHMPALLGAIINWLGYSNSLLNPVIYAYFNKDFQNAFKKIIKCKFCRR

[2] = species: Rattus norvegicus; test: Inhibition of binding of [3H]-nicotine to neural nicotinic cholinergic receptor in rat brain membranes at 10e-5 M of compound concentration; Less active; assay type: cell membranes
[3] = biological target: T2, Muscarinic acetylcholine receptor M2 (Rattus norvegicus) (UniProt P10980); test: Inhibition of binding of [3H]quinuclidinyl benzilate to Muscarinic acetylcholine receptor M2 in rat heart atria at 10e-5 M of compound concentration; Less active
T2 sequence (whole entry): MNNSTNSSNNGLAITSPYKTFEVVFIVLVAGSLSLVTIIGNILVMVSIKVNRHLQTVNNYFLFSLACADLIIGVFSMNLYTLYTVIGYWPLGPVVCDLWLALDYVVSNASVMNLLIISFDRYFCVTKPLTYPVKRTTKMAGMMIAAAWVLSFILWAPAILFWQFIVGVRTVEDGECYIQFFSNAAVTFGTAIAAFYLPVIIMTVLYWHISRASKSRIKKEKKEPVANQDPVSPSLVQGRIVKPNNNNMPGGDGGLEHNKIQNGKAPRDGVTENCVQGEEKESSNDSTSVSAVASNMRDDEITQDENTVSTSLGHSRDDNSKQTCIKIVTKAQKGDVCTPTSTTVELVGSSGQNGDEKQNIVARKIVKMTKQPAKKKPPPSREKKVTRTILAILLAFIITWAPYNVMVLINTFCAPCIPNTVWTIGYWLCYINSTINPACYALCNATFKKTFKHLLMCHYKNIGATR

[4] = biological target: T3, Muscarinic acetylcholine receptor M1 (Rattus norvegicus) (UniProt P08482); test: Inhibition of binding of [3H]quinuclidinyl benzilate to Muscarinic acetylcholine receptor M1 in rat brain cortex at 10e-5 M of compound concentration; Less active; assay type: tissue-based
T3 sequence (whole entry): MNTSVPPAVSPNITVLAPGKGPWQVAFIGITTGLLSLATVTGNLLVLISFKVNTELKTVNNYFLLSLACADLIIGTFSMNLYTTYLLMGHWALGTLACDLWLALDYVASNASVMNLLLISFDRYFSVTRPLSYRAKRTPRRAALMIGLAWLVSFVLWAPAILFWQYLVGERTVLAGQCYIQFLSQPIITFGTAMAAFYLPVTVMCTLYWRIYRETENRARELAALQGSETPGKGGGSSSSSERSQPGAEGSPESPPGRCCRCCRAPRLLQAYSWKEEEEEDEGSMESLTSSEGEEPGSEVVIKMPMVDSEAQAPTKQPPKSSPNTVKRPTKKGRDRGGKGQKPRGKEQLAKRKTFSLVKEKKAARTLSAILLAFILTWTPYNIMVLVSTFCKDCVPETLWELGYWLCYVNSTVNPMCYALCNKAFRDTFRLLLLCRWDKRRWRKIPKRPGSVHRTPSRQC

[5] = biological target: 5-hydroxytryptamine receptor 1B (Rattus norvegicus) (UniProt P28564); test: Inhibition of [3H]5-HT binding to 5-hydroxytryptamine 1B receptor in rat striatum; Less active; assay type: tissue-based
5-hydroxytryptamine receptor 1B (Rattus norvegicus), sequence (P28564 whole entry): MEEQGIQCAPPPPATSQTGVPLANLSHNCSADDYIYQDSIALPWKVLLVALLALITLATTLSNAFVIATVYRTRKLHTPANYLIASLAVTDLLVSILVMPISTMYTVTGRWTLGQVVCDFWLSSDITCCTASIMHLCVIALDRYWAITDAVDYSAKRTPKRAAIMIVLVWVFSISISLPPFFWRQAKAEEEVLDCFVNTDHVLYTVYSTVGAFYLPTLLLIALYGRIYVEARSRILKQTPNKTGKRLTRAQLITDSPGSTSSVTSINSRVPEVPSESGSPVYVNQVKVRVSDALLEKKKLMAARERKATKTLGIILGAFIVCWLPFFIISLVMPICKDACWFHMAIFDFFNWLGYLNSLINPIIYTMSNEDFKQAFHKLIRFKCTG

[6] = biological target: T4, Muscarinic acetylcholine receptor M2 (Rattus norvegicus, UniProt P10980); test: Inhibition of binding of [3H]quinuclidinyl benzilate to Muscarinic acetylcholine receptor M2 in rat heart atria at 10e-5 M of compound concentration
T4 sequence (P10980 whole entry): T2 sequence (whole entry)

[7] = Inhibition of binding of [3H]nicotine to neural nicotinic cholinergic receptor in rat brain membranes at 10e-5 M of compound concentration; assay type: cell membranes
[8] = biological target: T5, Muscarinic acetylcholine receptor M1 (Rattus norvegicus, UniProt P08482); test: Inhibition of binding of [3H]quinuclidinyl benzilate to Muscarinic acetylcholine receptor M1 in rat brain cortex at 10e-5 M of compound concentration; assay type: tissue-based
T5 sequence (P08482 whole entry): T3 sequence (whole entry)

[9] = biological target: T4, Muscarinic acetylcholine receptor M2
[10] = biological target: T5, Muscarinic acetylcholine receptor M1; assay type: tissue-based, Brain
[11] = biological target: T2, Muscarinic acetylcholine receptor M2 (Rattus norvegicus); test: Inhibition of binding of [3H]quinuclidinyl benzilate to Muscarinic acetylcholine receptor M2 in rat heart atria at 10e-5 M of compound concentration. Less active
[12] = species: Rattus norvegicus; test: Inhibition of binding of [3H]nicotine to neural nicotinic cholinergic receptor in rat brain membranes at 10e-5 M of compound concentration; Less active; assay type: cell membranes
[13] = biological target: T5, Muscarinic acetylcholine receptor M1; test: Inhibition of binding of [3H]quinuclidinyl benzilate to Muscarinic acetylcholine receptor M1 in rat brain cortex at 10e-5 M of compound concentration; Residual radioligand binding higher than 80%; assay type: tissue-based

Row | SMILES | Activity [1] | Activity [2] | Activity [3] | Activity [4] | Activity [5] | IC50 [7] | other results
1 | CCOC(=O)N1C2CCC1CC(O)(c1ccc(Cl)nc1)C2 (stereo unspecified) | Weak activity | Weak activity | Weak activity | Weak activity | Weak activity |  | 
2 | CN1C2C=C(c3ccc(Cl)nc3)CC1CC2 (stereo unspecified) |  |  |  |  |  | 1.8 nM | IC50 [6]: 4180 nM; IC50 [8]: 2140 nM
3 | C[n+]1cccc(-c2ccc(Cl)nc2)c1.[I-] |  |  |  |  |  | 77 nM | IC50 [9]: Not Active; IC50 [10]: Not Active
4 | CN1C2CCC1CC(O)(c1ccc(Cl)cn1)C2 (stereo unspecified) | Weak activity |  |  | Weak activity | Weak activity |  | Activity [11]: Weak activity; Activity [12]: Weak activity
5 | CN1CCC=C(c2ccc(Cl)nc2)C1.O=C(O)/C=C\C(=O)O |  |  |  |  |  | 2.2 nM | IC50 [6]: 3510 nM; IC50 [10]: Not Active
6 | CN1C2C=C(c3ccc(Cl)cn3)CC1CC2 (stereo unspecified) | Weak activity | Weak activity | Weak activity | Weak activity | Weak activity |  | 
7 | Cl.Clc1cccc(C2=CC3CCC(C2)N3)n1 (stereo unspecified) |  |  |  |  |  | 212 nM | IC50 [9]: Not Active; IC50 [13]: Not Active
8 | CN1C2CCC1CC(O)(c1ccc(Cl)nc1)C2 (stereo unspecified) | Weak activity | Weak activity | Weak activity | Weak activity | Weak activity |  | 
9 | CN1C2C=C(c3cccc(Cl)n3)CC1CC2.O=C(O)/C=C\C(=O)O (stereo unspecified) |  |  |  |  |  | 264 nM | IC50 [9]: Not Active; IC50 [8]: 1850 nM
10 | CN1C2CCC1CC(O)(c1cccc(Cl)n1)C2 (stereo unspecified) | Weak activity | Weak activity | Weak activity | Weak activity | Weak activity |  | 
11 | Clc1ccc(C2=CC3CCC(C2)N3)cn1.O=C(O)/C=C\C(=O)O (stereo unspecified) |  |  |  |  |  | 1.7 nM | IC50 [9]: Not Active; IC50 [13]: Not Active
12 | CCOC(=O)OC1(c2ccc(Cl)nc2)CCN(C)CC1 | Weak activity | Weak activity | Weak activity | Weak activity | Weak activity |  | 
13 | CN1CCC(O)(c2ccc(Cl)nc2)CC1 | Weak activity | Weak activity | Weak activity | Weak activity | Weak activity |  | 
14 | CN1CC=C(c2ccc(Cl)nc2)CC1.Cl |  |  |  |  |  | 12.5 nM | IC50 [9]: Not Active; IC50 [10]: Not Active
15 | Clc1ccc(-c2cccnc2)cn1 | Weak activity |  | Weak activity | Weak activity | Weak activity |  | Activity [12]: Weak activity
16 | CCOC(=O)N1C2CCC1CC(O)(c1cccc(Cl)n1)C2 (stereo unspecified) | Weak activity |  | Weak activity | Weak activity | Weak activity |  | Activity [12]: Weak activity
17 | CCOC(=O)N1C2CCC1CC(O)(c1ccc(Cl)cn1)C2 (stereo unspecified) | Weak activity |  | Weak activity | Weak activity | Weak activity |  | Activity [12]: Weak activity
